Consider 38 compounds from US20080039455A1, “PYRAZOLOPYRIMIDINES AND SALTS THEREOF, PHARMACEUTICAL COMPOSITIONS COMPRISING SAME, METHODS OF PREPARING SAME AND USES OF SAME” (priority 2006, published 2008).

A value given as a limit tells only on which side of the number the result lay.

The test has as its target T1, human recombinant ALK1 (GST fused to ALK1 intracellular domain [His142-Gln503]) (Homo sapiens, UniProt P37023).
T1 construct: GST fused to ALK1 intracellular domain [His142-Gln503]; made in house
T1 sequence (P37023 142-503): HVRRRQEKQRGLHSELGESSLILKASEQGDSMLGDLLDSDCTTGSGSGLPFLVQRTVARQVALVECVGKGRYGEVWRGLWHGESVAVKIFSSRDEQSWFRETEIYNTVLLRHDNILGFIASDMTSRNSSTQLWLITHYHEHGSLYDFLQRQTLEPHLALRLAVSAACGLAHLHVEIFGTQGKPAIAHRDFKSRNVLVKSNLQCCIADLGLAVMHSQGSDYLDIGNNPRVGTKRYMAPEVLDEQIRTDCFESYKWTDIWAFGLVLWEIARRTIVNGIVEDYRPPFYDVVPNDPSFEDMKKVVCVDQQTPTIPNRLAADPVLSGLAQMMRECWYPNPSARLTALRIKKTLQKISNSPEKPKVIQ
The experiment in a line: ALK1-Kinase Flashplate-Assay. As to conditions: 0.5 μM ATP, biotinylated α-casein substrate; read-out: Assay 1 (ALK1-Kinase Flashplate-Assay IC50 class). Format: biochemical. In short, it runs like this:
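Radiometric Flashplate assay at 20 °C: GST-ALK1 intracellular domain (5 ng/well) with 1 μM biotinylated bovine α-casein, 0.5 μM ATP plus [γ-33P]ATP in Tris pH 8.0, 1 mM MnCl2, 1% or 5% DMSO, 60 min. Normalised to no-inhibitor (0%) and 10 mM EDTA (100%); IC50 by 4-parameter fit.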

Broadly, the IC50 is the concentration at which inhibition is half-maximal. On to `Cn1cc(-c2cnn3ccc(Nc4ccc(N5CCOCC5)cc4)nc23)cn1` [Example 235, [3-(1-Methyl-1H-pyrazol-4-yl)-pyrazolo[1,5-a]pyrimidin-5-yl]-(4-morpholin-4-yl-phenyl)-amine], for which the IC50 lay in the range of 1000 to 10000 nM. For `COc1cccc(-c2cnn3ccc(Nc4ccccc4)nc23)c1` [Example 241, [3-(3-Methoxy-phenyl)-pyrazolo[1,5-a]pyrimidin-5-yl]-phenyl-amine] the value was 1000 to 10000 nM. `c1ccc(Nc2ccn3ncc(-c4cccs4)c3n2)cc1` [Example 242, Phenyl-(3-thiophen-2-yl-pyrazolo[1,5-a]pyrimidin-5-yl)-amine]: the half-inhibitory concentration (IC50) is 1000 to 10000 nM. For `CS(=O)(=O)Nc1cccc(-c2cnn3ccc(Nc4ccccc4)nc23)c1` [Example 243, N-[3-(5-Phenylamino-pyrazolo[1,5-a]pyrimidin-3-yl)-phenyl]-methanesulfonamide] the value was below 1000 nM; for `Cn1cc(-c2cnn3ccc(Nc4ccccc4)nc23)cn1` [Example 244, [3-(1-Methyl-1H-pyrazol-4-yl)-pyrazolo[1,5-a]pyrimidin-5-yl]-phenyl-amine], below 1000 nM. For `O=C(O)c1ccc(-c2cnn3ccc(Nc4ccccc4)nc23)cc1` [Example 248, 4-(5-Phenylamino-pyrazolo[1,5-a]pyrimidin-3-yl)-benzoic acid] the value was 1000 to 10000 nM. Turning to `COc1cncc(-c2cnn3ccc(Nc4ccccc4)nc23)c1` [Example 251, [3-(5-Methoxy-pyridin-3-yl)-pyrazolo[1,5-a]pyrimidin-5-yl]-phenyl-amine], the concentration for half-maximal inhibition (IC50) lay within 1000 to 10000 nM. Then `COc1cc(-c2cnn3ccc(Nc4ccc(Oc5ccccc5)cc4)nc23)cc(OC)c1OC` [Example 254, (4-Phenoxy-phenyl)-[3-(3,4,5-trimethoxy-phenyl)-pyrazolo[1,5-a]pyrimidin-5-yl]-amine], with 1000 to 10000 nM; and `O=C(O)c1ccc(-c2cnn3ccc(Nc4ccc(Oc5ccccc5)cc4)nc23)cc1` [Example 255, 4-[5-(4-Phenoxy-phenylamino)-pyrazolo[1,5-a]pyrimidin-3-yl]-benzoic acid], with below 1000 nM. In the case of `COc1cc(-c2cnn3ccc(Nc4ccc(F)c(Cl)c4)nc23)cc(OC)c1OC` [Example 259, (3-Chloro-4-fluoro-phenyl)-[3-(3,4,5-trimethoxy-phenyl)-pyrazolo[1,5-a]pyrimidin-5-yl]-amine], the half-inhibitory concentration (IC50) is 1000 to 10000 nM. Then `CC(=O)c1cccc(-c2cnn3ccc(Nc4ccc(C(C)C)cc4)nc23)c1` [Example 266, 1-{3-[5-(4-Isopropyl-phenylamino)-pyrazolo[1,5-a]pyrimidin-3-yl]-phenyl}-ethanone], with 1000 to 10000 nM; and `Oc1cccc(-c2cnn3ccc(Nc4ccccc4)nc23)c1` [Example 271, 3-(5-Phenylamino-pyrazolo[1,5-a]pyrimidin-3-yl)-phenol], with 1000 to 10000 nM. For `OCc1cccc(-c2cnn3ccc(Nc4ccccc4)nc23)c1` [Example 272, [3-(5-Phenylamino-pyrazolo[1,5-a]pyrimidin-3-yl)-phenyl]-methanol] the value was below 1000 nM. For the compound `CC(C)c1ccc(Nc2ccn3ncc(-c4cccc(CO)c4)c3n2)cc1` [Example 275, {3-[5-(4-Isopropyl-phenylamino)-pyrazolo[1,5-a]pyrimidin-3-yl]-phenyl}-methanol], the IC50 was 1000 to 10000 nM. Then `COc1cc(-c2cnn3ccc(Nc4ccc(C(C)C)cc4)nc23)ccc1O` [Example 277, 4-[5-(4-Isopropyl-phenylamino)-pyrazolo[1,5-a]pyrimidin-3-yl]-2-methoxy-phenol], with below 1000 nM; and `c1ccc(Nc2ccn3ncc(-c4cccnc4)c3n2)cc1` [Example 278, Phenyl-(3-pyridin-3-yl-pyrazolo[1,5-a]pyrimidin-5-yl)-amine], with 1000 to 10000 nM; and `c1ccc(Nc2ccn3ncc(-c4ccsc4)c3n2)cc1` [Example 280, Phenyl-(3-thiophen-3-yl-pyrazolo[1,5-a]pyrimidin-5-yl)-amine], with 1000 to 10000 nM. Then `Oc1ccc(-c2cnn3ccc(Nc4ccccc4)nc23)cc1` [Example 282, 4-(5-Phenylamino-pyrazolo[1,5-a]pyrimidin-3-yl)-phenol], with 1000 to 10000 nM; and `CC(=O)Nc1cccc(-c2cnn3ccc(Nc4ccccc4)nc23)c1` [Example 283, N-[3-(5-Phenylamino-pyrazolo[1,5-a]pyrimidin-3-yl)-phenyl]-acetamide], with 1000 to 10000 nM. For `c1cncc(CNc2ccn3ncc(-c4ccc5c(c4)OCO5)c3n2)c1` [Example 290, (3-Benzo[1,3]dioxol-5-yl-pyrazolo[1,5-a]pyrimidin-5-yl)-pyridin-3-ylmethyl-amine] the value was 1000 to 10000 nM. Regarding `c1cncc(CNc2ccn3ncc(-c4ccsc4)c3n2)c1` [Example 291, Pyridin-3-ylmethyl-(3-thiophen-3-yl-pyrazolo[1,5-a]pyrimidin-5-yl)-amine], the IC50 was 1000 to 10000 nM. Then `COc1ccc(-c2cnn3ccc(NCc4cccnc4)nc23)cc1OC` [Example 292, [3-(3,4-Dimethoxy-phenyl)-pyrazolo[1,5-a]pyrimidin-5-yl]-pyridin-3-ylmethyl-amine], with 1000 to 10000 nM; and `Oc1ccc(-c2cnn3ccc(NCc4cccnc4)nc23)cc1` [Example 293, 4-{5-[(Pyridin-3-ylmethyl)-amino]-pyrazolo[1,5-a]pyrimidin-3-yl}-phenol], with 1000 to 10000 nM; and `COc1cc(-c2cnn3ccc(Nc4cccc(Cl)c4)nc23)cc(OC)c1OC` [Example 306, (3-Chloro-phenyl)-[3-(3,4,5-trimethoxy-phenyl)-pyrazolo[1,5-a]pyrimidin-5-yl]-amine], with below 1000 nM. Regarding `Oc1cccc(-c2cnn3ccc(Nc4cccc(Cl)c4)nc23)c1` [Example 311, 3-[5-(3-Chloro-phenylamino)-pyrazolo[1,5-a]pyrimidin-3-yl]-phenol], the IC50 lay in the range of 1000 to 10000 nM. On to `OCc1cccc(-c2cnn3ccc(Nc4cccc(Cl)c4)nc23)c1` [Example 312, {3-[5-(3-Chloro-phenylamino)-pyrazolo[1,5-a]pyrimidin-3-yl]-phenyl}-methanol], for which the IC50 fell in the range of 1000 to 10000 nM. With `COc1cc(-c2cnn3ccc(Nc4cccc(Cl)c4)nc23)ccc1O` [Example 314, 4-[5-(3-Chloro-phenylamino)-pyrazolo[1,5-a]pyrimidin-3-yl]-2-methoxy-phenol], the IC50 was 1000 to 10000 nM. Regarding `Cc1ccc(S(=O)(=O)Nc2ccc(Nc3ccn4ncc(-c5ccc(C(=O)NCCN(C)C)cc5)c4n3)cc2)cc1` [Example 320, N-(2-Dimethylamino-ethyl)-4-{5-[4-(toluene-4-sulfonylamino)-phenylamino]-pyrazolo[1,5-a]pyrimidin-3-yl}-benzamide], the IC50 fell in the range of 1000 to 10000 nM. With `CN(C)CCNC(=O)c1cccc(-c2cnn3ccc(Nc4ccc(O)cc4)nc23)c1` [Example 326, N-(2-Dimethylamino-ethyl)-3-[5-(4-hydroxy-phenylamino)-pyrazolo[1,5-a]pyrimidin-3-yl]-benzamide], the IC50 lay in the range of 1000 to 10000 nM. On to `CN(C)CCNC(=O)c1cccc(-c2cnn3ccc(Nc4ccc(Oc5ccccc5)cc4)nc23)c1` [Example 329, N-(2-Dimethylamino-ethyl)-3-[5-(4-phenoxy-phenylamino)-pyrazolo[1,5-a]pyrimidin-3-yl]-benzamide], for which the IC50 is 1000 to 10000 nM. Turning to `CC(=O)Nc1ccc(Nc2ccn3ncc(-c4cccc(N(C)C)c4)c3n2)cc1` [Example 331, N-{4-[3-(3-Dimethylamino-phenyl)-pyrazolo[1,5-a]pyrimidin-5-ylamino]-phenyl}-acetamide], the concentration for half-maximal inhibition (IC50) was in the range of 1000 to 10000 nM. As for `COc1ccc(Nc2ccn3ncc(-c4cccc(N(C)C)c4)c3n2)cn1` [Example 332, [3-(3-Dimethylamino-phenyl)-pyrazolo[1,5-a]pyrimidin-5-yl]-(6-methoxy-pyridin-3-yl)-amine], the 50% inhibitory concentration (IC50) is 1000 to 10000 nM. Then `COc1ccc(Nc2ccn3ncc(-c4cccc(N)c4)c3n2)cn1` [Example 337, [3-(3-Amino-phenyl)-pyrazolo[1,5-a]pyrimidin-5-yl]-(6-methoxy-pyridin-3-yl)-amine], with 1000 to 10000 nM. `Nc1cccc(-c2cnn3ccc(Nc4ccc(O)cc4)nc23)c1` [Example 338, 4-[3-(3-Amino-phenyl)-pyrazolo[1,5-a]pyrimidin-5-ylamino]-phenol]: the IC50 fell in the range of 1000 to 10000 nM. Take `OC1CCC(Nc2ccn3ncc(-c4ccc(F)c(Cl)c4)c3n2)CC1` (centres unmarked) [Example 373, 4-[3-(3-Chloro-4-fluoro-phenyl)-pyrazolo[1,5-a]pyrimidin-5-ylamino]-cyclohexanol]: the IC50 was 1000 to 10000 nM. Turning to `c1ccc(-c2cnn3ccc(NCc4cccnc4)nc23)cc1` [Example 376, (3-Phenyl-pyrazolo[1,5-a]pyrimidin-5-yl)-pyridin-3-ylmethyl-amine], the 50% inhibitory concentration (IC50) lay within 1000 to 10000 nM. For `c1cncc(CNc2ccn3ncc(-c4cccc5ccccc45)c3n2)c1` [Example 377, (3-Naphthalen-1-yl-pyrazolo[1,5-a]pyrimidin-5-yl)-pyridin-3-ylmethyl-amine] the value was below 1000 nM.

Take `Fc1ccc(-c2cnn3ccc(NCc4cccnc4)nc23)cc1Cl` [Example 379, [3-(3-Chloro-4-fluoro-phenyl)-pyrazolo[1,5-a]pyrimidin-5-yl]-pyridin-3-ylmethyl-amine]: the IC50 lay within 1000 to 10000 nM.
